Measured values: PMC3466269, “A Comprehensive Strategy to Discover Inhibitors of the Translesion Synthesis DNA Polymerase κ” (PLoS ONE, 2012)

Key:
Human pol κ [1] = molecular target: T1, Human pol κ (Homo sapiens, UniProt Q9UBT6); assay: Radioactive gel-based primer extension assay on non-damaged DNA, pol κ; type: biochemical; settings: primer extension, non-damaged DNA, 0.25 nM pol κ; average ± standard error, three experiments; read-out: gel: non-damaged: IC50
T1 construct: Human pol κ (residues 19–526) was purified as previously reported; made in house
T1 sequence (Q9UBT6 19-526): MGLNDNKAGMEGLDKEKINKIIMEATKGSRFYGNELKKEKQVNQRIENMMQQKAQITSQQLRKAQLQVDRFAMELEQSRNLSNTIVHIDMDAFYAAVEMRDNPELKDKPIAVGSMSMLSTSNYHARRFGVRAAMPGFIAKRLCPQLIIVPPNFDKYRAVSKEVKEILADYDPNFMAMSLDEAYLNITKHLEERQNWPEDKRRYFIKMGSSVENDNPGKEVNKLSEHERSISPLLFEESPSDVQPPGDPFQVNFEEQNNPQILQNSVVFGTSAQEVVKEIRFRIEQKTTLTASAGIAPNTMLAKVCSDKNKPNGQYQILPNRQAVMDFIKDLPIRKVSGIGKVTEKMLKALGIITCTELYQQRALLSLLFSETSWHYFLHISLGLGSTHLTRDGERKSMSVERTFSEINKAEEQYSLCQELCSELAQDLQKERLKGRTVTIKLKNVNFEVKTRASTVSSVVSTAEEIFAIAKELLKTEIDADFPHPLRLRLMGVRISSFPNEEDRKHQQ
Method: (§1) The reactions with pol κ, pol η, and pol ι were carried out in the buffers containing 25 mM Tris-HCl, pH 7.5, 8 mM MgCl2, 10% glycerol, 100 µg/mL bovine serum albumin, and 5 mM DTT. Buffers for pol δ reactions contained 40 mM Hepes-KOH, pH 6.8, 10% glycerol, 200 µg/mL bovine serum albumin, 1 mM DTT, and 8 mM MgCl2. Final concentration of pol κ, pol η, pol ι, or pol δ in the reaction was 0.25 nM, 1 nM, 2.5 nM, or 4 nM, respectively. In this assay, a polymerase was preincubated with the compound for 15 min at room temperature. Primer extensions were then initiated by the addition of DNA substrate at final concentration of 5 nM and carried out for 30 min at room temperature in the presence of 100 µM dCTP and dGTP. The reactions were terminated by the addition of an equal volume of a dye solution containing 95% (v/v) formamide, 10 mM EDTA, 0.03% (w/v) xylene cyanol, and 0.03% (w/v) bromphenol blue. Reaction products were separated through a 15% acrylamide gel containing 8 M urea and visualized with a PhosphorImager screen. The ratio of extended primer to the total amount of primer was measured using ImageQuant 5.2 software to calculate the percentage of primer extended. IC50 values were determined by fitting the data to variable slope four-parameter equations using GraphPad Prism 5.

Human pol κ [2] = molecular target: T1, Human pol κ; assay: Radioactive gel-based primer extension (TLS) past acrolein-derived ring-opened reduced form of γ-HOPdG, pol κ; type: biochemical; settings: primer extension, adducted DNA, 0.25 nM pol κ; average ± standard error, three experiments; read-out: gel: ring-opened reduced form of γ-HOPdG: IC50
Method: as §1
The primary role of pol κ is to bypass DNA lesions. Therefore, it was critical to establish the assays to investigate the capability of these compounds to inhibit lesion bypass activity of pol κ. Radioactive gel-based primer extension reactions were carried out using a DNA substrate containing a site-specific acrolein-derived ring-opened reduced form of γ-HOPdG, a lesion that pol κ can efficiently bypass in vitro [13].

[3] = molecular target: T2, Human pol η (residues 1–437) (Homo sapiens, UniProt Q9Y253); assay: Radioactive gel-based primer extension assay on non-damaged DNA, pol η; type: biochemical; settings: average ± standard error, three experiments
T2 construct: Human pol η (residues1–437) was purified following the same procedures; made in house
T2 sequence (Q9Y253 1-437): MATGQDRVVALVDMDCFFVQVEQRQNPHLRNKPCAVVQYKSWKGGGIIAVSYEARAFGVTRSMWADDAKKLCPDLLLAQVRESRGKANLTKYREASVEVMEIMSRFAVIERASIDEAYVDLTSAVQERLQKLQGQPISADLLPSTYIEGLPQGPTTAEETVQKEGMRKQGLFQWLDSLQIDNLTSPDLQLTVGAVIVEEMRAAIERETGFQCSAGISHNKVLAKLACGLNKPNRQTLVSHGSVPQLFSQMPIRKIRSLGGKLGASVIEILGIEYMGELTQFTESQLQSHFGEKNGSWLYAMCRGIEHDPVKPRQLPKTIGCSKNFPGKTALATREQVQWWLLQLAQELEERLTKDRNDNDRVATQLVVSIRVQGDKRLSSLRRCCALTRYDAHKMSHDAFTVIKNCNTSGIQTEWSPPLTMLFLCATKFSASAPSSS
Method: as §1, with “Prism 5. […]” for “Prism 5.”

[4] = tested on: double-stranded DNA ladder; assay: DNA intercalation assay (agarose gel shift of DNA ladder); type: binding; settings: 0.75 or 3 nmol compound with 1.5 nmol DNA, 1% agarose gel
Method: Candesartan cilexetil or ethidium bromide was incubated with 1.5 nmol of double-stranded DNA ladder for 15 min at room temperature in the buffer containing 50 mM Tris-HCl, pH 8.0, 0.01% Tween-20, 1 mM DTT, and 40 mM NaCl. The reaction mixtures were run on 1% agarose gel and stained with ethidium bromide (0.5 µg/ml) for visualization.
Figure 7 The non-DNA-intercalating property of candesartan cilexetil. Candesartan cilexetil or ethidium bromide was incubated with double-stranded DNA ladder, and the reaction products were run on 1% agarose gel and stained with ethidium bromide. Lane 1: No compound. Lane 2: 0.75 nmol of candesartan cilexetil was incubated with 1.5 nmol DNA. Lane 3: 3 nmol of candesartan cilexetil was incubated with 1.5 nmol DNA. Lane 4: 0.75 nmol of ethidium bromide was incubated with 1.5 nmol DNA. Lane 5: 3 nmol of ethidium bromide was incubated with 1.5 nmol DNA.

XP30RO cells (XP-V) [5] = assay: Cell survival assay, CellTiter-Glo Luminescent Cell Viability Assay, with or without UV; type: cell-based, Human; settings: CellTiter-Glo (ATP content); 24 µM, UV 1.5, 4.5 or 7.5 J/m^2
Source text: Supplementary file pone.0045032.s001.tif: Figure S1 Effect of candesartan cilexetil on UV-induced cytotoxicity using CellTiter-Glo Luminescent Cell Viability Assay. […] I: candesartan cilexetil. (TIF) Click here for additional data file.

XP30RO cells (XP-V) [6] = assay: Cell survival assay, crystal violet, with or without UV
Method: Cell survival assays were carried out using crystal violet assays and CellTiter-Glo Luminescent Cell Viability Assays. In crystal violet assays, XP30RO cells were plated into clear 96-well plates at a density of 8000 cells/mL and incubated overnight at 37°C, 5% CO2. The cells were treated with (1) inhibitor alone for 6 h or (2) UV alone or (3) inhibitor alone for 6 h followed by UV irradiation. After 2 days, cells were fixed with 4% paraformaldehyde and stained with 0.5% crystal violet dye. The dye was dissolved in 10% acetic acid and absorbance measurement was taken at OD595 nm with Infinite® M200 plate reader (Tecan, Durham, NC). For the CellTiter-Glo Luminescent Cell Viability Assays, the same procedures as crystal violet assays were used except that white/clear bottom 96-well plates were used and cell viability was measured following manufacturer's recommendations.
XP30RO cells were treated with 24 µM of candesartan cilexetil alone, UV alone at 1.5 J/m^2, 4.5 J/m^2, or 7.5 J/m^2, or in combination. Percent survival was calculated by normalizing the data using the cell survival of untreated cells. The data were obtained from three independent experiments.

## CCOc1nc2cccc(C(=O)OC(C)OC(=O)OC3CCCCC3)c2n1Cc1ccc(-c2ccccc2-c2nnn[nH]2)cc1 (stereo not shown) [candesartan cilexetil, Candesartan cilexetil]
Human pol κ [1]
  IC50: 9.2 ± 0.5 µM
Human pol κ [2]
  IC50: 11 ± 1.5 µM
[3]
  IC50: 11.2 ± 1 µM
[4]
  DNA migration pattern (intercalation): no difference in DNA migration pattern
XP30RO cells (XP-V) [5]
  Effect on UV-induced cytotoxicity: comparable results were obtained
XP30RO cells (XP-V) [6]; 24 µM, no UV
  Cell survival with compound alone: cell survival was not altered
XP30RO cells (XP-V) [6]; crystal violet, inhibitor 6 h then UV 1.5, 4.5 or 7.5 J/m^2, candesartan cilexetil 24 µM
  Effect on UV-induced cytotoxicity: potentiated the cytotoxicity of UV at higher UV doses
